Converted amounts (≈) assume the structure as drawn. Where two headings read alike, the source gives them in different places. One block for each compound: values may come before it.
Assay: Solubility of UV absorber in oil comprising ionic liquid
Type: physicochemical
Conditions: for solubility: 21 °C, thermodynamic from solid, read-out: Solubility of Tinosorb ® S with Cetiol ® B as oil; for Solubility of Uvinul ® T150 with Cetiol ® B as oil: 21° C.
Protocol: For this, increasing amounts of active ingredient were added stepwise to oil (Cetiol® B or Solvesso®), which comprised the ionic liquid, until the maximum solubility was reached. Alternatively, the oil, which comprised the ionic liquid, was saturated with the active ingredient and the soluble fraction of active ingredient was quantified by means of HPLC.

- solubility (neat ionic liquid (no oil), organic solvent or mixture, 100 IL (no oil), IL N-butyl-N′-methylimidazolium acetate): 1 mg/mL (≈ 1590 µM)
- solubility (neat ionic liquid (no oil), organic solvent or mixture, 100 IL (no oil), IL N-ethyl-N′-ethylimidazolium heptanoate): 1 mg/mL (≈ 1590 µM)
- solubility (neat ionic liquid (no oil), organic solvent or mixture, 100 IL (no oil), IL N-ethyl-N′-ethylimidazolium octanoate): 1 mg/mL (≈ 1590 µM)
- solubility (neat ionic liquid (no oil), organic solvent or mixture, 100 IL (no oil), IL N-ethyl-N′-methylimidazolium isononanoate): 9.5 mg/mL (≈ 15100 µM)
- solubility (neat oil (no ionic liquid), oil or lipid, 100 Oil (Cetiol B, no IL)): 6.2 mg/mL (≈ 9880 µM)
- solubility (oil/ionic liquid mixture, oil or lipid, Oil/IL 20/80 weight ratio, IL N-butyl-N′-methylimidazolium acetate): 12.4 mg/mL
- solubility (oil/ionic liquid mixture, oil or lipid, Oil/IL 20/80 weight ratio, IL N-ethyl-N′-ethylimidazolium octanoate): 16.7 mg/mL
- solubility (oil/ionic liquid mixture, oil or lipid, Oil/IL 20/80 weight ratio, IL N-ethyl-N′-methylimidazolium isononanoate): 19.2 mg/mL
- solubility (oil/ionic liquid mixture, oil or lipid, Oil/IL 60/40 weight ratio, IL N-butyl-N′-methylimidazolium acetate): 14.3 mg/mL
- solubility (oil/ionic liquid mixture, oil or lipid, Oil/IL 60/40 weight ratio, IL N-ethyl-N′-ethylimidazolium heptanoate): 21.9 mg/mL
- solubility (oil/ionic liquid mixture, oil or lipid, Oil/IL 60/40 weight ratio, IL N-ethyl-N′-ethylimidazolium octanoate): 21.9 mg/mL
- solubility (oil/ionic liquid mixture, oil or lipid, Oil/IL 60/40 weight ratio, IL N-ethyl-N′-methylimidazolium isononanoate): 22.4 mg/mL
- solubility (oil/ionic liquid mixture, oil or lipid, Oil/IL 90/10 weight ratio, IL N-butyl-N′-methylimidazolium acetate): 11.7 mg/mL
- solubility (oil/ionic liquid mixture, oil or lipid, Oil/IL 90/10 weight ratio, IL N-ethyl-N′-ethylimidazolium heptanoate): 13 mg/mL
- solubility (oil/ionic liquid mixture, oil or lipid, Oil/IL 90/10 weight ratio, IL N-ethyl-N′-ethylimidazolium octanoate): 13 mg/mL
- solubility (oil/ionic liquid mixture, oil or lipid, Oil/IL 90/10 weight ratio, IL N-ethyl-N′-methylimidazolium isononanoate): 13.8 mg/mL
Structure (SMILES): CCCCC(CC)COc1ccc(-c2nc(-c3ccc(OC)cc3)nc(-c3ccc(OCC(CC)CCCC)cc3O)n2)c(O)c1 (centres unmarked) [Tinosorb ® S, bis-ethylhexyloxyphenol methoxyphenyl triazine]

- Solubility of Uvinul ® T150 with Cetiol ® B as oil (100 IL (no oil), IL Cholinium [2-(2-methoxyethoxy)ethoxy]acetate): 1 mg/mL
- Solubility of Uvinul ® T150 with Cetiol ® B as oil (100 IL (no oil), IL N-butyl-N′-methylimidazolium acetate): 5 mg/mL
- Solubility of Uvinul ® T150 with Cetiol ® B as oil (100 IL (no oil), IL N-ethyl-N′-ethylimidazolium propionate): 5 mg/mL
- Solubility of Uvinul ® T150 with Cetiol ® B as oil (100 IL (no oil), IL N-ethyl-N′-methylimidazolium acetate): 1 mg/mL
- Solubility of Uvinul ® T150 with Cetiol ® B as oil (100 IL (no oil), IL N-ethyl-N′-methylimidazolium isononanoate): 1 mg/mL
- Solubility of Uvinul ® T150 with Cetiol ® B as oil (100 Oil (Cetiol B, no IL)): 14.2 mg/mL
- Solubility of Uvinul ® T150 with Cetiol ® B as oil (Oil/IL 20/80 weight ratio, IL N-butyl-N′-methylimidazolium acetate): 41.5 mg/mL
- Solubility of Uvinul ® T150 with Cetiol ® B as oil (Oil/IL 20/80 weight ratio, IL N-ethyl-N′-ethylimidazolium propionate): 44.1 mg/mL
- Solubility of Uvinul ® T150 with Cetiol ® B as oil (Oil/IL 20/80 weight ratio, IL N-ethyl-N′-methylimidazolium acetate): 40.8 mg/mL
- Solubility of Uvinul ® T150 with Cetiol ® B as oil (Oil/IL 20/80 weight ratio, IL N-ethyl-N′-methylimidazolium isononanoate): 34.8 mg/mL
- Solubility of Uvinul ® T150 with Cetiol ® B as oil (Oil/IL 60/40 weight ratio, IL N-butyl-N′-methylimidazolium acetate): 54.1 mg/mL
- Solubility of Uvinul ® T150 with Cetiol ® B as oil (Oil/IL 60/40 weight ratio, IL N-ethyl-N′-ethylimidazolium propionate): 54.3 mg/mL
- Solubility of Uvinul ® T150 with Cetiol ® B as oil (Oil/IL 60/40 weight ratio, IL N-ethyl-N′-methylimidazolium acetate): 52.8 mg/mL
- Solubility of Uvinul ® T150 with Cetiol ® B as oil (Oil/IL 60/40 weight ratio, IL N-ethyl-N′-methylimidazolium isononanoate): 45.7 mg/mL
- Solubility of Uvinul ® T150 with Cetiol ® B as oil (Oil/IL 90/10 weight ratio, IL Cholinium [2-(2-methoxyethoxy)ethoxy]acetate): 21.3 mg/mL
- Solubility of Uvinul ® T150 with Cetiol ® B as oil (Oil/IL 90/10 weight ratio, IL N-butyl-N′-methylimidazolium acetate): 37.5 mg/mL
- Solubility of Uvinul ® T150 with Cetiol ® B as oil (Oil/IL 90/10 weight ratio, IL N-ethyl-N′-ethylimidazolium propionate): 33.3 mg/mL
- Solubility of Uvinul ® T150 with Cetiol ® B as oil (Oil/IL 90/10 weight ratio, IL N-ethyl-N′-methylimidazolium acetate): 37.5 mg/mL
- Solubility of Uvinul ® T150 with Cetiol ® B as oil (Oil/IL 90/10 weight ratio, IL N-ethyl-N′-methylimidazolium isononanoate): 32.4 mg/mL
Structure (SMILES): CCCCC(CC)COC(=O)c1ccc(Nc2nc(Nc3ccc(C(=O)OCC(CC)CCCC)cc3)nc(Nc3ccc(C(=O)OCC(CC)CCCC)cc3)n2)cc1 (centres unmarked) [Uvinul ® T150, 2,4,6-trianilino-p-(carbo-2′-ethylhexyl-1′-oxy)-1,3,5-triazine]

Reference: US9949475B2, “Composition comprising active ingredient, oil and ionic liquid” (priority 2011, dated 2018)
